US20100317528A1, “HERBICIDE CONTAINING BENZOYLPYRAZOLE COMPOUND” (ISHIHARA SANGYO KAISHA, LTD., priority 2006, published 2010)

Columns and labels:
Type in all cases: in vivo
[1] = tested on: crabgrass (Digitaria sanguinalis L.); experiment: Test Example 1: foliar treatment, upland pot test, crabgrass; details: 31 g/ha active ingredient, observed 17th to 25th day after application
[2] = tested on: prickly sida (Sida spinosa L.); experiment: Test Example 1: foliar treatment, upland pot test, prickly sida; details: 31 g/ha active ingredient, observed 17th to 25th day after application
[3] = tested on: green foxtail (Setaria viridis L.); experiment: Test Example 2: soil application on the day after sowing, green foxtail; details: 250 g/ha active ingredient, observed 19th to 28th day after application
How it was run: (§1)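 Day-after-sowing soil treatment in 1/170,000 ha pots of upland soil, sprayed at 500 L/ha water volume; % growth inhibition rated by eye 19–28 days later.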

[4] = tested on: prickly sida (Sida spinosa L.); experiment: Test Example 2: soil application on the day after sowing, prickly sida; details: 250 g/ha active ingredient, observed 19th to 28th day after application
How it was run: as §1

[5] = tested on: wheat (Triticum spp.); experiment: Test Example 2: soil application on the day after sowing, wheat; details: 250 g/ha active ingredient, observed 19th to 28th day after application
How it was run: as §1

[6] = tested on: green foxtail (Setaria viridis L.); experiment: Test Example 1: foliar treatment, upland pot test, green foxtail; details: 31 g/ha active ingredient, observed 17th to 25th day after application
[7] = tested on: corn (Zea mays L.); experiment: Test Example 2: soil application on the day after sowing, corn; details: 250 g/ha active ingredient, observed 19th to 28th day after application
How it was run: as §1

[8] = tested on: redroot pigweed (Amaranthus retroflexus L.); experiment: Test Example 1: foliar treatment, upland pot test, redroot pigweed; details: 31 g/ha active ingredient, observed 17th to 25th day after application
How it was run: (§2)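 Upland soil pots, sown; foliar spray at pigweed cotyledon–2.0 leaf, velvetleaf 0.1–1.5 leaf, rice 1.0–3.0 leaf, wheat 1.7–3.4 leaf. WP/EC formulations, prescribed a.i. rate, 500 L/ha spray volume + 0.1 vol % spreader. Visual % inhibition, d17–25.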

[9] = tested on: barnyardgrass (Echinochloa crus-galli L.); experiment: Test Example 1: foliar treatment, upland pot test, barnyardgrass; details: 31 g/ha active ingredient, observed 17th to 25th day after application
[10] = tested on: soybean (Glycine max Merr.); experiment: Test Example 1: foliar treatment, upland pot test, soybean; details: 31 g/ha active ingredient, observed 17th to 25th day after application
[11] = tested on: barnyardgrass (Echinochloa crus-galli L.); experiment: Test Example 2: soil application on the day after sowing, barnyardgrass; details: 250 g/ha active ingredient, observed 19th to 28th day after application
How it was run: as §1

[12] = tested on: corn (Zea mays L.); experiment: Test Example 1: foliar treatment, upland pot test, corn; details: 31 g/ha active ingredient, observed 17th to 25th day after application
[13] = tested on: wheat (Triticum spp.); experiment: Test Example 1: foliar treatment, upland pot test, wheat; details: 31 g/ha active ingredient, observed 17th to 25th day after application
How it was run: as §2

[14] = tested on: velvetleaf (Abutilon theophrasti MEDIC.); experiment: Test Example 2: soil application on the day after sowing, velvetleaf; details: 250 g/ha active ingredient, observed 19th to 28th day after application
How it was run: as §1

[15] = tested on: redroot pigweed (Amaranthus retroflexus L.); experiment: Test Example 2: soil application on the day after sowing, redroot pigweed; details: 250 g/ha active ingredient, observed 19th to 28th day after application
How it was run: as §1

[16] = tested on: velvetleaf (Abutilon theophrasti MEDIC.); experiment: Test Example 1: foliar treatment, upland pot test, velvetleaf; details: 31 g/ha active ingredient, observed 17th to 25th day after application
How it was run: as §2

[17] = tested on: rice (Oryza sativa L.); experiment: Test Example 2: soil application on the day after sowing, rice; details: 250 g/ha active ingredient, observed 19th to 28th day after application
How it was run: as §1

[18] = tested on: rice (Oryza sativa L.); experiment: Test Example 1: foliar treatment, upland pot test, rice; details: 31 g/ha active ingredient, observed 17th to 25th day after application
How it was run: as §2

[19] = tested on: green foxtail (Setaria viridis L.); experiment: Test Example 3: foliar treatment at later leaf stage, green foxtail; details: 4.0 to 4.5 leaf stage, MSO Concentrate 0.5 vol %, 300 L/ha
Excerpt: (§3) Upland field soil was put into a 1/1,000,000 hectare pot, and seeds of various plants were sown. When the respective plants reached predetermined leaf stage ((1) green foxtail (Setaria viridis L.): 4.0 to 4.5 leaf stage, (2) guineagrass (Panicum maximum Jacq.): 3.5 to 4.3 leaf stage, and (3) corn (Zea mays L.): 4.0 to 4.3 leaf stage, wettable powders or emulsifiable concentrates of compounds of the above formula (I), prepared in accordance with a conventional preparation method, were weighed so that the active ingredients became the prescribed amounts, and diluted with water in an amount corresponding to 300 or 500 liter per 1 hectare (containing of an agricultural spreader (MSO concentrate, manufactured by Cognis Corporation or “KUSARINOH”, manufactured by NIHON NOHYAKU CO., LTD.). The spray solutions thus prepared were applied for foliar treatment by a small sprayer.
(§4) On the 18th to 24th day after application, the state of growth of the respective plants was visually observed, and the herbicidal effect was evaluated by a growth inhibition rate (%) of 0 (equivalent to the non-treated area) to 100% (complete kill).

[20] = tested on: crabgrass (Digitaria sanquinalis L.); experiment: Test Example 2: soil application on the day after sowing, crabgrass; details: 250 g/ha active ingredient, observed 19th to 28th day after application
How it was run: as §1

[21] = tested on: soybean (Glycine max Merr.); experiment: Test Example 2: soil application on the day after sowing, soybean; details: 250 g/ha active ingredient, observed 19th to 28th day after application
How it was run: as §1

[22] = tested on: corn (Zea mays L.); experiment: Test Example 3: foliar treatment at later leaf stage, corn; details: Zea mays, 4.0 to 4.3 leaf stage, MSO Concentrate 0.5 vol %, 300 L/ha, read-out: Growth inhibition rate (%) (21st day after application) Corn
Excerpt: as §3, §4

[23] = tested on: guineagrass (Panicum maximum Jacq.); experiment: Test Example 3: foliar treatment at later leaf stage, guineagrass; details: Megathyrsus maximus, 3.5 to 4.3 leaf stage, KUSARINOH 0.1 vol %, 500 L/ha, read-out: Growth inhibition rate (%) (18th day after application) Guineagrass
Excerpt: as §3, §4

[24] = Zea mays, read-out: Growth inhibition rate (%) Corn
[25] = Amaranthus retroflexus, read-out: Growth inhibition rate (%) Redroot pigweed
[26] = Abutilon theophrasti, read-out: Growth inhibition rate (%) Velvetleaf

Compound: COCCOc1c(S(C)(=O)=O)ccc(C(=O)c2cnn(C(C)C)c2O)c1C [compound 258]
- Growth inhibition rate (%) Crabgrass [1]: 100%
- Growth inhibition rate (%) Prickly sida [2]: 50%
- Growth inhibition rate (%) Green foxtail [3]: 100%
- Growth inhibition rate (%) Prickly sida [4]: 40%
- Growth inhibition rate (%) Wheat [5]: 0%
- Growth inhibition rate (%) Green foxtail [6]: 100%
- Growth inhibition rate (%) Corn [7]: 0%
- Growth inhibition rate (%) Redroot pigweed [8]: 95%
- Growth inhibition rate (%) Barnyardgrass [9]: 100%
- Growth inhibition rate (%) Soybean [10]: 90%
- Growth inhibition rate (%) Barnyardgrass [11]: 100%
- Growth inhibition rate (%) Corn [12]: 10%
- Growth inhibition rate (%) Wheat [13]: 0%
- Growth inhibition rate (%) Velvetleaf [14]: 100%
- Growth inhibition rate (%) Redroot pigweed [15]: 100%
- Growth inhibition rate (%) Velvetleaf [16]: 98%
- Growth inhibition rate (%) Rice [17]: 80%
- Growth inhibition rate (%) Rice [18]: 95%
- Growth inhibition rate (%) (24th day after application) Green foxtail ([19]; 7 g/ha): 95%
- Growth inhibition rate (%) (24th day after application) Green foxtail ([19]; 15 g/ha): 100%
- Growth inhibition rate (%) Crabgrass [20]: 100%
- Growth inhibition rate (%) Soybean [21]: 0%

Compound: COCCOc1c(S(C)(=O)=O)ccc(C(=O)c2cnn(C)c2O)c1C [Compound No. 151, 5-hydroxy-1-methylpyrazol-4-yl 3-(2-methoxyethoxy)-2-methyl-4-(methylsulfonyl)phenyl ketone]
- inhibition at 31 g/ha ([1]; Digitaria sanguinalis, read-out: Growth inhibition rate (%) Crabgrass): 100%
- inhibition at 31 g/ha ([2]; Sida spinosa, read-out: Growth inhibition rate (%) Prickly sida): 80%
- inhibition at 120 g/ha [22]: 2%
- inhibition at 31 g/ha ([6]; Setaria viridis, read-out: Growth inhibition rate (%) Green foxtail): 100%
- inhibition at 250 g/ha [7, 24]: 0%
- inhibition at 31 g/ha [8, 25]: 100%
- inhibition at 31 g/ha ([9]; Echinochloa crus-galli, read-out: Growth inhibition rate (%) Barnyardgrass): 100%
- inhibition at 31 g/ha ([10]; Glycine max, read-out: Growth inhibition rate (%) Soybean): 95%
- inhibition at 31 g/ha [12, 24]: 30%
- inhibition at 31 g/ha ([13]; Triticum, read-out: Growth inhibition rate (%) Wheat): 10%
- inhibition at 31 g/ha [23]: 93%
- inhibition at 250 g/ha [14, 26]: 70%
- inhibition at 250 g/ha [15, 25]: 100%
- inhibition at 31 g/ha [16, 26]: 98%
- inhibition at 31 g/ha ([18]; Oryza sativa, read-out: Growth inhibition rate (%) Rice): 60%
- inhibition at 7 g/ha ([19]; Setaria viridis, 7 g/ha, read-out: Growth inhibition rate (%) (24th day after application) Green foxtail): 97%
- inhibition at 15 g/ha ([19]; Setaria viridis, 15 g/ha, read-out: Growth inhibition rate (%) (24th day after application) Green foxtail): 100%
- inhibition at 250 g/ha ([20]; Digitaria, read-out: Growth inhibition rate (%) Crabgrass): 100%
